Consider 5 compounds from PMC11728000, “Antitumor Activity and Multi-Target Mechanism of Phenolic Schiff Bases Bearing Methanesulfonamide Fragments: Cell Cycle Analysis and a Molecular Modeling Study” (International Journal of Molecular Sciences, 2024).

In series [1] the test system is HCT-116. The series can be described thus: NCI anticancer screening (SRB), Colon Cancer subpanel. The note with it: for GI%: 10.0 µM in one dose. The format is cell-based, human.
In another series the test system is MDA-MB-468. The series can be described thus: NCI anticancer screening (SRB), Breast Cancer subpanel. In kind it is cell-based, human. The note with it: for GI%: 10.0 µM in one dose.
Another series concerns MDA-MB-231/ATCC. The description is as above. The note with it: for GI%: 10.0 µM in one dose. The format is cell-based, human.
The test system of a further series is PC-3. The series can be described thus: NCI anticancer screening (SRB), Prostate Cancer subpanel. The format is cell-based, human. The note with it: for GI%: 10.0 µM in one dose.
In the next series the test system is OVCAR-4. The series can be described thus: NCI anticancer screening (SRB), Ovarian Cancer subpanel. The format is cell-based, human. The conditions noted are these: for GI%: 10.0 µM in one dose.
The next series deals with EKVX. The series can be described thus: NCI anticancer screening (SRB), Non-Small Cell Lung Cancer subpanel. In kind it is cell-based, human. The conditions noted are these: for GI%: 10.0 µM in one dose.
The next series deals with DU-145. The series can be described thus: NCI anticancer screening (SRB), Prostate Cancer subpanel. The conditions noted are these: for GI%: 10.0 µM in one dose. The format is cell-based, human.
In a further series the test system is NCI-H226. The series can be described thus: NCI anticancer screening (SRB), Non-Small Cell Lung Cancer subpanel. The format is cell-based, human. The note with it: for GI%: 10.0 µM in one dose.
The next series has as its system MOLT-4. The series can be described thus: NCI anticancer screening (SRB), Leukemia subpanel. In kind it is cell-based, human. The conditions noted are these: for GI%: 10.0 µM in one dose.
The target in another series is HER2 (Homo sapiens, UniProt P04626). The series can be described thus: HER2 tyrosine kinase inhibition assay (ADP-Glo).
Chain of HER2 (P04626 23-1255): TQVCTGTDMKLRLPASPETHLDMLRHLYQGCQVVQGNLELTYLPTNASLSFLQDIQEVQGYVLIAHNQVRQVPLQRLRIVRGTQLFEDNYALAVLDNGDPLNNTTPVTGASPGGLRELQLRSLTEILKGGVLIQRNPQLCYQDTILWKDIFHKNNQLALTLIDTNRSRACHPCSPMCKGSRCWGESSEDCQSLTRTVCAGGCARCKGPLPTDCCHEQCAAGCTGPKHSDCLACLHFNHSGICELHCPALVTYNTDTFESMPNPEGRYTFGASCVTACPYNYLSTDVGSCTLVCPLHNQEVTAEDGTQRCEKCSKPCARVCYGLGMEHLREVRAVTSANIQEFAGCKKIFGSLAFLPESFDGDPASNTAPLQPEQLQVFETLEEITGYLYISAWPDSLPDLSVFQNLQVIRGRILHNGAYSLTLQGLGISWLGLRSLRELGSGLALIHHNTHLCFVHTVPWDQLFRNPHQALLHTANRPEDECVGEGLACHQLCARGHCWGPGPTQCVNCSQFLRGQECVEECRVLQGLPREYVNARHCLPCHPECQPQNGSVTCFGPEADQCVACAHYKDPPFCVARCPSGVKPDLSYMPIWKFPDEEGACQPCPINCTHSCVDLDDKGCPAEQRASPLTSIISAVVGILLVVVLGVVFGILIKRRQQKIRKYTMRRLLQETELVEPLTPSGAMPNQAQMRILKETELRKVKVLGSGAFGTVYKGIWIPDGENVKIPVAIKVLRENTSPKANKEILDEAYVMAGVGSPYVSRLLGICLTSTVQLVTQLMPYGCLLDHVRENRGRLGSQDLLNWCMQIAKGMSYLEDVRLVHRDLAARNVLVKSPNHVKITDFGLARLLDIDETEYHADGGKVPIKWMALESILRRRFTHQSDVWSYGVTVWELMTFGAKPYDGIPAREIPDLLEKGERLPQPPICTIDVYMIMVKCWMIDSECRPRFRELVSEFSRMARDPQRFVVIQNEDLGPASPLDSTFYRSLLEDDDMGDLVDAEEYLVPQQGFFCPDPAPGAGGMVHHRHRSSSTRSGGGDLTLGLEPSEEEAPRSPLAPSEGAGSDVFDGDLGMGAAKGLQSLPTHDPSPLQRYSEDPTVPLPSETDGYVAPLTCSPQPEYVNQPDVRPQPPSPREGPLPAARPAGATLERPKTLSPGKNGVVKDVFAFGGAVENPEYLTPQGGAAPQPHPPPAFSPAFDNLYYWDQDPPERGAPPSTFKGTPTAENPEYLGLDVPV
A further series can be described thus: in vitro. The note with it: human. The procedure:
(§1) the measured protein at the end of the drug treatment as compared to that at the beginning) indicating a net loss of cells following treatment was calculated from [(Ti − Tz)/Tz] […] = − 50.
Values were calculated for each of these three parameters if the activity level was reached; however, if the effect was not reached or exceeded, that parameter's value was expressed as more or less than the maximum or minimum concentration tested. The log GI50, log TGI, and log LC50 were then determined and defined as the mean of the logs of the individual GI50, TGI, and LC50 values. The lowest values are obtained with the most sensitive cell lines. The compound with log GI50 values −4 and <−4 was declared active.
2. In vitro cytotoxic activity towards normal fibroblast (WI-38) cells Cell Lines were obtained from the American Type Culture Collection; cells were cultured using DMEM (Invitrogen/Life Technologies) supplemented with 10% FBS (Hyclone), ten ug/ml of insulin (Sigma), and 1% penicillin–streptomycin. Cultures were removed from the incubator into a laminar flow hood, reconstituted with 3 mL of balanced salt solution without phenol red and serum, and then added to an amount equal to 10% of the culture medium volume. Cultures returned to the incubator for 2–4 h. After the incubation period, the resulting formazan crystals dissolved […]
(§2) medium volume. The absorbance was measured Spectrophotometrically at a wavelength of 570 […]
3. In vitro cyclooxygenase (COX-2) inhibition assay
(§3) The ability of the test compounds to inhibit COX-2 was determined using an enzyme immunoassay […]
manufacturer’s instructions.

Another series concerns SR. The series can be described thus: NCI anticancer screening (SRB), Leukemia subpanel. The format is cell-based, human. The note with it: for GI%: 10.0 µM in one dose.
In another series the test system is Bax. The series can be described thus: Apoptotic markers assay, Bax expression in MCF-7 cells. In kind it is cell-based, human. The conditions noted are these: MCF-7 cells treated at IC50 concentrations; vs untreated control = 1. The procedure: We measured the apoptosis promoter Bax levels, the apoptosis inhibitor Bcl−2, and the apoptosis coordination enzymes caspase-8 and caspase-9 [32].
The apoptotic marker method was carried out using the reported procedure using MCF-7, the cancer cell line (Supplementary Materials). […]
(cells are Plated […]
in a density of 1.2-1.8 X 10,000 cells/well in a volume of 100 µL complete growth medium + 100 µL of the tested compound per well in a 96-well plate for 24/48 h before the enzyme assay).
8. Evaluation of Bax and Bcl-2 expressions m RNA isolation was carried out using an RNeasy extraction kit, up to 1 X 107 cells. They were disrupted in Buffer RLT and homogenized. Ethanol was added to the lysate to promote the selective binding of RNA to the RNeasy membrane. Then, the sample was applied to the RNeasy […]
Mini spin column. Total RNA bound to the membrane. High-quality RNA was eluted using […]
(1 picture or pasted object on this page, not shown here)

The next series relates to K-562. The series can be described thus: NCI anticancer screening (SRB), Leukemia subpanel. The format is cell-based, human. The conditions noted are these: for GI%: 10.0 µM in one dose.
For another series, the system named is A498. The series can be described thus: NCI anticancer screening (SRB), Renal Cancer subpanel. In kind it is cell-based, human. The conditions noted are these: for GI%: 10.0 µM in one dose.
Another series deals with T-47D. The series can be described thus: NCI anticancer screening (SRB), Breast Cancer subpanel. In kind it is cell-based, human. The conditions noted are these: for GI%: 10.0 µM in one dose.
Another series has as its system SW-620. The series can be described thus: NCI anticancer screening (SRB), Colon Cancer subpanel. In kind it is cell-based, human. The conditions noted are these: for GI%: 10.0 µM in one dose.
Another series deals with UO-31. The series can be described thus: NCI anticancer screening (SRB), Renal Cancer subpanel. The format is cell-based, human. The conditions noted are these: for GI%: 10.0 µM in one dose.
Another series deals with NCI-H460. The series can be described thus: NCI anticancer screening (SRB), Non-Small Cell Lung Cancer subpanel. The format is cell-based, human. The conditions noted are these: for GI%: 10.0 µM in one dose.
Another series deals with TK-10. The series can be described thus: NCI anticancer screening (SRB), Renal Cancer subpanel. The note with it: for GI%: 10.0 µM in one dose. In kind it is cell-based, human.
The subject of a further series is SF-539. The series can be described thus: NCI anticancer screening (SRB), CNS Cancer subpanel. The note with it: for GI%: 10.0 µM in one dose. In kind it is cell-based, human.
The next series concerns A549/ATCC. The series can be described thus: NCI anticancer screening (SRB), Non-Small Cell Lung Cancer subpanel. The conditions noted are these: for GI%: 10.0 µM in one dose. In kind it is cell-based, human.
A further series concerns the target T1, COX-2 (Ovis aries, UniProt P79208).
T1 construct: purchased Cayman Chemical 560101
The series can be described thus: biochemical. The note with it: read-out: IC50, COX-2 Inhibition. The procedure:
as §1
Values were calculated for each of these three parameters if the activity level was reached; however, if the effect was not reached or exceeded, that parameter's value was expressed as more or less than the maximum or minimum concentration tested. The log GI50, log TGI, and log LC50 were then determined and defined as the mean of the logs of the individual GI50, TGI, and LC50 values. The lowest values are obtained with the most sensitive cell lines. The compound with […]
2. In vitro cytotoxic activity towards normal fibroblast (WI-38) cells Cell Lines were obtained from the American Type Culture Collection; cells were cultured using DMEM (Invitrogen/Life Technologies) supplemented with 10% FBS (Hyclone), ten ug/ml of insulin (Sigma), and 1% penicillin–streptomycin. Cultures were removed from the incubator into a laminar flow hood, reconstituted with 3 mL of balanced salt solution without phenol red and serum, and then added to an amount equal to 10% of the culture medium volume. […]
as §2, §3

Another series relates to MALME-3M. The series can be described thus: NCI anticancer screening (SRB), Melanoma subpanel. The format is cell-based, human. The note with it: for GI%: 10.0 µM in one dose.
For the next series, the system named is U251. The series can be described thus: NCI anticancer screening (SRB), CNS Cancer subpanel. The note with it: for GI%: 10.0 µM in one dose. In kind it is cell-based, human.
For another series, the system named is HCT-15. The series can be described thus: NCI anticancer screening (SRB), Colon Cancer subpanel. The format is cell-based, human. The conditions noted are these: for GI%: 10.0 µM in one dose.
In another series the test system is SK-MEL-5. On the set-up: method as in https://dtp.cancer.gov/dtpstandard/dwindex/index.jsp. The conditions noted are these: ref https://dtp.cancer.gov/dtpstandard/dwindex/index.jsp; cited from earlier work.
Series [2] deals with HCT-116. On the set-up: method as in https://dtp.cancer.gov/dtpstandard/dwindex/index.jsp. The conditions noted are these: ref https://dtp.cancer.gov/dtpstandard/dwindex/index.jsp; cited from earlier work.
In another series the test system is HOP-92. On the set-up: method as in https://dtp.cancer.gov/dtpstandard/dwindex/index.jsp. The note with it: ref https://dtp.cancer.gov/dtpstandard/dwindex/index.jsp; cited from earlier work.
[3] abbreviates: Homo sapiens, five concentrations.

Where two headings read alike, the source gives them in different places.

T1 sequence (P79208 17-603): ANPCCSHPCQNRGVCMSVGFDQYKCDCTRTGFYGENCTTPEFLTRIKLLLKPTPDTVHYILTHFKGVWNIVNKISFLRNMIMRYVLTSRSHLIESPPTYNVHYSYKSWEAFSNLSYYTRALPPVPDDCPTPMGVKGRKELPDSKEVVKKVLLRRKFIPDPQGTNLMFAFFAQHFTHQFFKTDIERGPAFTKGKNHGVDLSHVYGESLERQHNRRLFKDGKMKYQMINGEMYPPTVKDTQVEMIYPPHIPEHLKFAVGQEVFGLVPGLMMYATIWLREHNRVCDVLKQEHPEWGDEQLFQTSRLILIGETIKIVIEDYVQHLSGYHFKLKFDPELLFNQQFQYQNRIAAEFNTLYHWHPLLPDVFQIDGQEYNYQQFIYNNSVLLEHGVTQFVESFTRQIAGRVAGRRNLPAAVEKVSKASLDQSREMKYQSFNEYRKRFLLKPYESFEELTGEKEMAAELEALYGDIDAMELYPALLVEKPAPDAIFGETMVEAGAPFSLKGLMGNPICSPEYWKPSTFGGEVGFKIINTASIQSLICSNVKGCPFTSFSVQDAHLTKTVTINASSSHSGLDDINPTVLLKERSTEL

As to `CS(=O)(=O)Nc1ccc(C(=O)NN=Cc2ccccc2O)cc1` [Compound 7], the GI% turned out to be 59% with HCT-116 [1]; 24% in the series with MDA-MB-468; 34% in the series on MDA-MB-231/ATCC; 38% with PC-3; 53% in the series on OVCAR-4; 26% in the series on EKVX. For the same compound, the GI% with DU-145 stood at 33%; with NCI-H226, 25%; in the series with MOLT-4 it was 50%; in the series with SR, 67%; in the series on K-562, 26%; in the series with A498 it was 16%. The GI% in the series on T-47D stood at 18%; in the series on SW-620 it was 35%; in the series with UO-31, 64%; in the series with NCI-H460 it was 21%; in the series on TK-10, 21%; in the series on SF-539, 40%. Further, the GI% is 11% in the series on A549/ATCC, 24% in the series with MALME-3M, 56% in the series with U251 and 67% in the series on HCT-15. Moreover, the IC50 came out at 183 ± 11 nM against HER2, 111 µM in “in vitro” and 20.9 ± 0.82 µM on COX-2. Also, the “Bax, Gene Expression (Fold Change)” value in the series on Bax came to 5.02 fold change.

As to `CCN(CC)c1ccc(C=NNC(=O)c2ccc(NS(C)(=O)=O)cc2)c(O)c1` [Compound 8], the GI% with HCT-116 [1] is on record as 78%; with MDA-MB-468, above 100%; in the series with MDA-MB-231/ATCC, 62%; in the series with PC-3, 68%; with OVCAR-4, 69%; with EKVX, 84%. The GI% with DU-145 was 69%; in the series on NCI-H226, 61%; in the series on MOLT-4, 90%; in the series on SR, 89%; in the series with K-562 it was 86%; in the series on A498, 81%. For the same compound, the GI% in the series with T-47D is 74%; in the series on SW-620 it was 63%; in the series on UO-31, 87%; in the series on NCI-H460, 97%; in the series with TK-10, 52%; in the series with SF-539, 93%. Also, the GI% was 88% with A549/ATCC, 96% with MALME-3M, 76% with U251 and 80% with HCT-15. For the same compound, the GI50 in the series on HCT-116 [1] (Homo sapiens) turned out to be 263 nM; with MDA-MB-468 (setting [3]) it was 335 nM; with MDA-MB-231/ATCC (setting [3]), 425 nM; in the series with PC-3 (setting [3]), 368 nM; in the series with OVCAR-4 (setting [3]), 388 nM; with EKVX (setting [3]), 386 nM. The 50% growth inhibitory concentration (GI50) was 685 nM in the series on DU-145 (setting [3]); 986 nM in the series with NCI-H226 (setting [3]); 372 nM with MOLT-4 (setting [3]); 141 nM with SR (setting [3]); 492 nM with K-562 (Homo sapiens, K562, five concentrations); 2230 nM with A498 (setting [3]). The GI50 in the series on T-47D (Homo sapiens, T47D, five concentrations) stood at 382 nM; with SW-620 (setting [3]), 471 nM; with UO-31 (setting [3]), 346 nM; with NCI-H460 (setting [3]), 475 nM; in the series with TK-10 (setting [3]), 1050 nM; with SF-539 (setting [3]), 362 nM. The 50% growth inhibitory concentration (GI50) was 1340 nM in the series with A549/ATCC (setting [3]); 855 nM in the series with MALME-3M (setting [3]); 226 nM in the series on U251 (Homo sapiens, U-251, five concentrations); 358 nM in the series with HCT-15 (setting [3]). In addition, the IC50 against HER2 was 464 ± 18 nM; in “in vitro”, 82.1 µM; on COX-2 it was 12.8 ± 0.51 µM. Moreover, the “Bax, Gene Expression (Fold Change)” value in the series with Bax came out at 5.456 fold change.

For the compound `Cc1ccc(-c2cc(C(F)(F)F)nn2-c2ccc(S(N)(=O)=O)cc2)cc1` [Celecoxib, celecoxib], the 50% growth inhibitory concentration (GI50) with SK-MEL-5 is 15.8 µM.

In the case of `COc1cc2ncnc(Nc3ccc(F)c(Cl)c3)c2cc1OCCCN1CCOCC1` [Gefitinib, gefitinib], the GI50 is 3.16 µM in the series with SK-MEL-5, 3.16 µM with HCT-116 [2] and 316 nM in the series with HOP-92.

As for `C#Cc1cccc(Nc2ncnc3cc(OCCOC)c(OCCOC)cc23)c1` [Erlotinib, erlotinib], the GI50 was 6.31 µM with HCT-116 [2] and 3980 nM in the series with HOP-92.
